Test results: patent US20260226006A1, “INDOLE COMPOUND, PREPARATION METHOD THEREFOR AND USE THEREOF” (SUZHOU MERNA THERAPEUTICS CO. LTD, priority 2023, published 2026)

Experiments:
[1] = test system: skin of hind limb toes of mice; experiment: Kinase inhibitor-induced mouse models with hand-foot skin reaction (Example 24); format: in vivo, ICR mice; details: for degree of swelling of hind limb toes / epidermal layer and stratum corneum in skin tissues of hind limb toes (pathological staining): modeling drug oral for 14 days; for skin appearance of hind limb toes: modeling for 14 days, sorafenib 100 mg/kg or osimertinib 10 mg/kg oral; for expression level of cytokine IL-1β in skin tissues of hind limb toes / thickening of the epidermal layer and the stratum corneum in the skin tissues (pathological staining) / swelling of the toes caused by the modeling drugs: compound 2b 3% ointment topical or nicotinamide 100 mg/kg oral; for thickening of the epidermal layer and the stratum corneum in the skin tissues (pathological staining) / swelling of the toes caused by the modeling drugs: sorafenib or osimertinib model; for swelling of the toes caused by the modeling drugs: once daily 16 days
Description: After adaptive feeding for 7 days, SPF-grade ICR mice (male, 5-6 weeks old, with a body weight of approximately 35 g) were randomly divided into groups, including a blank control group (6 mice), a sorafenib modeling group (6 mice), an osimertinib modeling group (6 mice), a sorafenib+compound 2b group (6 mice), an osimertinib+compound 2b group (6 mice), a sorafenib+nicotinamide group (6 mice), and an osimertinib+nicotinamide group (6 mice). The groups were respectively administered corresponding modeling drugs by oral gavage (sorafenib at 100 mg/kg and osimertinib at 10 mg/kg) once daily, and the blank control group was administered an equivalent volume of normal saline. After administration with the chemotherapeutic drugs for 2 weeks, the compound ointments (at a compound content of 3%) used in Example 22 were respectively applied topically in the groups or nicotinamide was orally administered (100 mg/kg) once daily continuously for 16 days.
Measurement of the degree of swelling of toes: The degree of swelling of hind limb toes of the mice was measured using a toe swelling tester (KW-7C, Nanjing Calvin Biotechnology Co., Ltd.) before administration with the modeling drugs, after administration with the modeling drugs for 2 weeks, and before sacrifice, respectively. Before measurement, ankle joints of hind paws of the mice were marked at same positions before administration, after administration for 2 weeks, and before sacrifice. During measurement, water was properly located at the same level as the marked positions, and numerical values were recorded after becoming stable.
Pathological staining of skin tissues: Skin tissue samples were selected from hind limb toes of the mice and placed in 4% paraformaldehyde for fixation at room temperature for 4 hours. Then, the tissues were taken out and rinsed with running water for several hours. The samples were subjected to dehydration treatment with 70%, 80%, and 90% ethanol solutions, followed by treatment with a mixed solution of equal amounts of absolute alcohol and xylene for 15 minutes, and then permeabilized twice with a xylene solution for 15 minutes each time until the samples became transparent. The samples were placed in a mixture of half xylene and half paraffin for soaking for 15 minutes, and then, paraffin I and paraffin II were added for wax penetration for one hour, respectively. After embedding with paraffin, the samples were sectioned, baked, dewaxed, and hydrated. Then, the hydrated sections were placed in a hematoxylin solution (ZSGB-BIO, article No. 23041001) for staining for 3 minutes, and a differentiation solution of hydrochloric acid in ethanol was added for differentiation for 15 seconds. After rinsing with water, a Scott bluing solution (Servicebio, article No. 20230801) was added for bluing for 15 seconds. After rinsing with running water, the sections were stained with an eosin solution (Solarbio, article No. 33535) for 3 minutes, rinsed with running water, dehydrated, permeabilized, sealed, and inspected under a microscope.
Immunohistochemical staining: After baking, dewaxing, and hydration, paraffin sections of skin tissues of hind limb toes of the mice were subjected to antigen retrieval using a 0.2 M citric acid buffer solution (containing 1.534 g of citric acid, 3.1 g of sodium citrate, and 100 mL of distilled water, pH 4.7). Endogenous […] was removed using 3% hydrogen peroxide (Shandong Annjet High-Tech Disinfection Technology Co., Ltd., article No. 20290902), and the sections were incubated at room temperature for 10 minutes and then fully rinsed with a PBS buffer solution (containing 8 g of NaCl, 0.2 g of KCl, 1.44 g of Na2HPO4, and 1 M HCl, pH 7.4). The sections were permeabilized with 0.5% Triron-X-100 (AmyJet Scientific, article No. A-CSH436-100 mL), respectively permeabilized with mouse anti-IL-1β and rabbit IL-8 for 10 minutes, and not permeabilized with rabbit anti-IL-6. […]

THP-1 cells = experiment: m6A methylation level of THP-1 cells by LC-MS (Example 19); format: cell-based; details: 24 hours
Protocol: 1*10^8 THP-1 cells were seeded in culture dishes, into which 400 nM compound 1, 4 nM and 400 nM compounds 2b, 5a, and 8b, 4 nM and 4 μM nicotinamide, and 5 μM m6A methylase inhibitor UZH2 were added, respectively. The cells were cultured in an incubator containing 5% CO2 at 37° C. for 24 hours. After culture media were discarded, the cells were washed with PBS and centrifuged to discard the supernatant. 400 μL of an RLT cell lysis buffer was added, and the cells were stored at −80° C. A portion of samples were selected, into which 400 μL of 70% ethanol was added and evenly stirred. 700 μL of a sample was transferred to an RNeasy centrifugation column and centrifuged for 15 seconds (8,000 g, 25° C.). Then, 700 μL of an RW1 buffer solution was added and centrifuged for 15 seconds (8,000 g, 25° C.), followed by the addition of 500 μL of an RPE buffer solution and centrifugation for 16 seconds (8,000 g, 25° C.). The above steps were repeated twice, followed by centrifugation for 2 minutes to completely remove the eluent. 30 μL of nuclease-free water was added to a chromatographic column, and the cells were incubated for 5 minutes and then centrifuged for 2 minutes (12,000 g, 25° C.). The steps were repeated 3 times. 2 μL of an RNA sample was selected and dissolved in 98 μL of a 10 mM Tris buffer solution, and the absorbance at 260 nm was measured using a Nanodrop to determine the RNA concentration.
50 μg of total RNA was selected and dissolved in 100 μL of nuclease-free water. Oligo (dT) magnetic beads were resuspended, 50 μL of the magnetic beads were transferred to a 1.5 mL test tube, 500 μL of a binding buffer solution was added, the mixture was allowed to stand, and the supernatant was removed. 100 μL of an RNA sample was added to 200 μL of a magnetic bead suspension for mixing, the mixture was stirred and incubated in a Thermomixer at 25° C. for 5 minutes, the supernatant was discarded, and then 200 μL of a washing buffer solution was added. The steps were repeated 2 times, and then centrifugation was performed for 10 seconds (2,000 g, 25° C.). 50 μL of an elution buffer solution was added and evenly mixed, the mixture was heated to 75° C., the supernatant was transferred to a new 1.5 mL test tube and purified using an RNA Clean & Concentrator kit, and the RNA concentration was determined.
20 μL (approximately 200 ng) of an mRNA sample and 20 μL of a Nuclease P1 digestion premix (including 0.5 μL of 2 unit/μL Nuclease P1, 0.4 μL of 5 M NaCl, 2 μL of 0.1 M ZnCl2, and 17.1 μL of PCR-grade water) were added into each test tube, and the mixture was stirred and incubated in a Thermomixer at 37° C. for 2 hours. 2 μL of a 2 M NH4HCO3 solution and 1 unit of alkaline phosphatase were added, and the mixture was stirred and incubated in a Thermomixer at 37° C. for 2 hours. 1 μL of a 1.2 M HCl neutralization solution was added, and centrifugation was performed for 30 minutes (16,000 g, 4° C.). 20 μL of the supernatant was collected, an m6A methylation fragment was analyzed by LC-MS, and the m6A inhibition rate was calculated.
m6A inhibition rate (%)=(measured ion peak area−blank control)/(positive ion peak area−blank control)*100.

| SMILES | degree of swelling of hind limb toes [1] | epidermal layer and stratum corneum in skin tissues of hind limb toes (pathological staining) [1] | skin appearance of hind limb toes [1] | expression level of cytokine IL-1β in skin tissues of hind limb toes ([1]; osimertinib model) | expression level of cytokine IL-1β in skin tissues of hind limb toes ([1]; sorafenib model) | thickening of the epidermal layer and the stratum corneum in the skin tissues (pathological staining) [1] | swelling of the toes caused by the modeling drugs [1] | m6A methylation level of mRNA of the cells (THP-1 cells; 4 nM and 400 nM) | other results |
| --- | --- | --- | --- | --- | --- | --- | --- | --- | --- |
| CNC(=O)c1cc(Oc2ccc(NC(=O)Nc3ccc(Cl)c(C(F)(F)F)c3)cc2)ccn1 [Sorafenib, sorafenib, reference compound] | significant swelling | significantly thickened | obvious erythema and rhagades | – | – | – | – | – | cytokine IL-1β in skin tissues of hind limb toes (immunohistochemistry) ([1]; sorafenib oral for 14 days): significantly increased |
| C=CC(=O)Nc1cc(Nc2nccc(-c3cn(C)c4ccccc34)n2)c(OC)cc1N(C)CCN(C)C [Osimertinib, osimertinib, reference compound] | significant swelling | significantly thickened | obvious erythema and rhagades | – | – | – | – | – | cytokine IL-1β in skin tissues of hind limb toes (immunohistochemistry) ([1]; osimertinib oral for 14 days): significantly increased |
| NC(=O)c1cccnc1 [Nicotinamide, nicotinamide] | – | – | – | does not have a significant impact | does not have a significant impact | does not significantly alleviate | not observed that oral administration of the nicotinamide at 100 mg/kg significantly alleviates the swelling | – | m6A methylation level of mRNA of the cells (THP-1 cells; 4 nM and 4 μM): no inhibitory effect |
| NC(=O)[C@H]1CCCc2c1[nH]c1ccc(Cl)cc21 [Compound 2b, (S)-6-chloro-2,3,4,9-tetrahydro-1H-carbazole-1-carboxamide] | – | – | – | significantly decrease | significantly decrease | effectively alleviate | effectively alleviate | significantly inhibit | m6A inhibition activity (THP-1 cells; 400 nM): comparable to that of the m6A methylase inhibitor UZH2 at a concentration of 5 μM |
| NC(=O)C1c2[nH]c3ccc(Cl)cc3c2C2CCC1C2 [Compound 5a, (S)-2-chloro-5,6,7,8,9,10-hexahydro-7,10-methanocyclohepta[b]indole-6-carboxamide] | – | – | – | – | – | – | – | significantly inhibit | – |
| CN1CC[C@H](C(N)=O)c2[nH]c3ccc(Cl)cc3c21 [Compound 8b, (S)-8-chloro-1-methyl-2,3,4,5-tetrahydropyrido[3,2-b]indole-4-carboxamide] | – | – | – | – | – | – | – | significantly inhibit | – |
